Source: BindingDB's records for doi:10.1111/j.1747-0285.2007.00488.x (Shanghai Jiao Tong University, 2007)

Target: Vascular endothelial growth factor receptor 2 (Homo sapiens, UniProt P35968)
Experiment: Kinase Inhibition Assay

Vascular endothelial growth factor receptor 2, sequence (P35968 whole entry): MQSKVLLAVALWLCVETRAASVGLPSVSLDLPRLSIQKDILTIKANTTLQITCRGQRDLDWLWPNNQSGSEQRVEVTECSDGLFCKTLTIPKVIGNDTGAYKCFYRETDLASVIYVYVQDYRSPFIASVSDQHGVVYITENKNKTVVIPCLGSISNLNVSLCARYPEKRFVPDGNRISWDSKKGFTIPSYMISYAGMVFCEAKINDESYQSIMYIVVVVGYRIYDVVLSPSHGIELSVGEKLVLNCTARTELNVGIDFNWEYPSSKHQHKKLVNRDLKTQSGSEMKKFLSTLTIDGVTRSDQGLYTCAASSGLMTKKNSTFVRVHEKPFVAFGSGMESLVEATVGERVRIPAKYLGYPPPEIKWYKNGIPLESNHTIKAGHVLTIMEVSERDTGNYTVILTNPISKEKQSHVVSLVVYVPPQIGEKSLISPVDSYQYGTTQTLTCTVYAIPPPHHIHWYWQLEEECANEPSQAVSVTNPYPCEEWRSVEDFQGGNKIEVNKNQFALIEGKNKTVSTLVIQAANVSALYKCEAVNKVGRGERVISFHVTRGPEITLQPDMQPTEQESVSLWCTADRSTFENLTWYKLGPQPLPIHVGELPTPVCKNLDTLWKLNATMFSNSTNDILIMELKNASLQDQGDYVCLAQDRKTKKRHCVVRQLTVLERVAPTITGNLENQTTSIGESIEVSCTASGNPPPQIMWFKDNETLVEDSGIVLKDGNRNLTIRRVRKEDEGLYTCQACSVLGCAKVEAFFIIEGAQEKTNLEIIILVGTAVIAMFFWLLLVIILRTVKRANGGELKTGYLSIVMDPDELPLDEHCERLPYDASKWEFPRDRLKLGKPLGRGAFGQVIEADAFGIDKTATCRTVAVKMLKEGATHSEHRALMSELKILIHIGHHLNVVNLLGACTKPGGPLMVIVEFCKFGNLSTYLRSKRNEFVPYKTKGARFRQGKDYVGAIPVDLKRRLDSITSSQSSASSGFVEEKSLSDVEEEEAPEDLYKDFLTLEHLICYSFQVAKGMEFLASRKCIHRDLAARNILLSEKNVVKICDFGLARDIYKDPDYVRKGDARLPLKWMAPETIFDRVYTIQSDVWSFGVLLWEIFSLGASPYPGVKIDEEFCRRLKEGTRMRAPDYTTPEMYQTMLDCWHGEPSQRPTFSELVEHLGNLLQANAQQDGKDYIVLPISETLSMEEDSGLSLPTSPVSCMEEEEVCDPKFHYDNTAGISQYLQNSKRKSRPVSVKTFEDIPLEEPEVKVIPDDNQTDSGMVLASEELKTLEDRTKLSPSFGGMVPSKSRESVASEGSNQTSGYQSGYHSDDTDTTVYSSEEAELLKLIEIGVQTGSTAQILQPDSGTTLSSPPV

IC50: 18 nM
SMILES: NC[C@@H]1O[C@H](O[C@H]2[C@@H](O)[C@H](O[C@@H]3[C@@H](O)[C@H](N)C[C@H](N)[C@H]3O[C@H]3O[C@H](CN)[C@@H](O)[C@H](O)[C@H]3N)O[C@@H]2CO)[C@H](N)[C@@H](O)[C@@H]1O [KDR Kinase Inhibitor, 3]
